Measurements reported in US4668669A, “Pristinamycin IIB derivatives and compositions containing them” (Rhone-Poulenc Sante, priority 1985, dated 1987).
Starred links: 1 amine or outer side, 2 acyl side, 3 side chain; linkers in the order of their positions; H or OH if unused. Positions of bridges follow the written chain, without caps; N, C: chain ends. Non-standard residues stand in square brackets, D forms with d. Residues, ends and D or L forms follow the SMILES beside them. ξ: configuration not given here. *: point of attachment. X6 = CC(CN1CCN(C)CC1)SC=C1CN([*:1])C(C(=O)[*:2])CC1=O; X4 = CN(C)CC(CN(C)C)SCC1CN([*:1])C(C(=O)[*:2])CC1=O; X5 = CN1CCN(CCCSCC2CN([*:1])C(C(=O)[*:2])CC2=O)CC1; X2 = CN1CCC(SCC2CN([*:1])C(C(=O)[*:2])CC2=O)CC1; ξNMePhe(4-NMe2) = CNC(Cc1ccc(N(C)C)cc1)C(=O)O; X1 = CN(C)CCOC=C1CN([*:1])C(C(=O)[*:2])CC1=O; X3 = CN(C)CCNC=C1CN([*:1])C(C(=O)[*:2])CC1=O; X7 = CN(C)CCCSCC1CN([*:1])C(C(=O)[*:2])CC1=O; Picolinoyl(3-OH) = O=C(c1ncccc1O)*; NMeF = CN[CH](Cc1ccccc1)C(=O)O; Phg = N[CH](C(=O)O)c1ccccc1; Abu = CC[CH](N)C(=O)O

Assay: Solubility in water (aqueous solution obtained)
Format: physicochemical
Settings: hydrochloride / dissolved with aqueous hydrochloric acid and distilled water
Excerpt: In the examples described below, unless stated otherwise, all the products can be dissolved at a strength of at least 2%, in the form of hydrochloride.

First: 5γ-deoxy-5γ-[N-(3-dimethylaminopropyl)acetamido]pristinamycin IA [product M]
Second: CCC1NC(=O)C(NC(=O)c2ncccc2O)C(C)OC(=O)C(c2ccccc2)NC(=O)C2CC(=O)C(CSC(CN(C)C)CN(C)C)CN2C(=O)C(Cc2ccc(N(C)C)cc2)N(C)C(=O)C2CCCN2C1=O (centres unmarked) [product AE, 5δ-[1,3-bis(dimethylamino)-2-propyl]thiomethylpristinamycin IA] ({Picolinoyl(3-OH)}-T[Abu]P[ξNMePhe(4-NMe2)][X4][Phg]; ester 1-C; configuration not given here)
The “Solubility: concentration of aqueous solution, in the form of hydrochloride” value (“Solubility: concentration … of hydrochloride” for short) of the first is higher: 10% for the first, 7.5% for the second.

Compared with “5γ-Deoxy-5γ-(2-dimethylaminoethyl)aminopristinamycin IA [compound 2]”, `CCC1NC(=O)C(NC(=O)c2ncccc2O)C(C)OC(=O)C(c2ccccc2)NC(=O)C2CC(=O)C(CSC3CCN(C)CC3)CN2C(=O)C(Cc2ccc(N(C)C)cc2)N(C)C(=O)C2CCCN2C1=O` (centres unmarked) [product AF, 5δ-(1-methyl-4-piperidyl)thiomethylpristinamycin IA] ({Picolinoyl(3-OH)}-T[Abu]P[ξNMePhe(4-NMe2)][X2][Phg]; ester 1-C; configuration not given here) is lower in “Solubility: concentration … of hydrochloride” value: 10% for the first, 5% for the second.

Compared with “5γ-deoxy-5γ-(4-diethylamino-2-methylbutyl)aminopristinamycin IA [product F]”, `CC1=CC(O)CC(=O)Cc2nc(co2)C(=O)N2CCC([S+]([O-])CCCN(C)C)C2C(=O)OC(C(C)C)C(C)C=CC(=O)NCC=C1` (centres unmarked) [Example 6, 26-(3-dimethylaminopropyl)sulphinylpristinamycin IIB] is lower in “Solubility: concentration … of hydrochloride” value: 10% for the first, 2% for the second.

Compared with “5γ-deoxy-5γ-dimethylaminopristinamycin IA [product B]”, “5γ-deoxy-5γ-[N-(2-dimethylaminoethyl)acetamido]pristinamycin IA [product L]” is higher in “Solubility: concentration … of hydrochloride” value: 2% for the first, 10% for the second.

First: 5γ-deoxy-5γ-methylaminopristinamycin IA [Reference Example 9]
Second: 5δ-(2-diethylaminoethyl)thiomethylpristinamycin IA [product AF1]
The “Solubility: concentration … of hydrochloride” value of the first is lower: 1% for the first, 5% for the second.

First: CC1=CC(O)CC(=O)Cc2nc(co2)C(=O)N2CCC([S+]([O-])CCN(C)C)C2C(=O)OC(C(C)C)C(C)C=CC(=O)NCC=C1 (centres unmarked) [Example 4, 26-(2-dimethylaminoethyl)sulphinylpristinamycin IIB]
Second: 5δ-(1-methyl-4-piperidyl)aminomethylenepristinamycin IA [product AT]
The “Solubility: concentration … of hydrochloride” value of the first is lower: 3.7% for the first, 10% for the second.

Going from `CCC1NC(=O)C(NC(=O)c2ncccc2O)C(C)OC(=O)C(c2ccccc2)NC(=O)C2CC(=O)C(=COCCN(C)C)CN2C(=O)C(Cc2ccc(N(C)C)cc2)N(C)C(=O)C2CCCN2C1=O` (centres unmarked) [product AAQ, 5δ-(2-dimethylaminoethoxymethylene)pristinamycin IA] ({Picolinoyl(3-OH)}-T[Abu]P[ξNMePhe(4-NMe2)][X1][Phg]; ester 1-C; configuration not given here) to “5δ-(5-diethylamino-2-pentyl)thiomethylenepristinamycin IA [Reference Example 58]”, the “Solubility: concentration … of hydrochloride” value rises from 1% to 10%.

“5δ-(2-dimethylaminoethyl)thiomethylenepristinamycin IA [product AX]” and `CC1=CC(O)CC(=O)Cc2nc(co2)C(=O)N2CCC([S+]([O-])CC(Cc3ccccc3)N(C)C)C2C(=O)OC(C(C)C)C(C)C=CC(=O)NCC=C1` [Example 11, 26-[(2S)-2-dimethylamino-3-phenylpropyl]sulphinylpristinamycin IIB] are the same in “Solubility: concentration … of hydrochloride” value: 1% for the first, 1% for the second.

Going from `CCCCCCCCCCNCC[S+]([O-])C1CCN2C(=O)c3coc(n3)CC(=O)CC(O)C=C(C)C=CCNC(=O)C=CC(C)C(C(C)C)OC(=O)C12` (centres unmarked) [Example 18, 26-(2-decylaminoethyl)sulphinylpristinamycin IIB] to “5δ-[2-(4-methyl-1-piperazinyl)ethyl]thiomethylpristinamycin IA [product AC]”, the “Solubility: concentration … of hydrochloride” value rises from 1% to 5%.

Going from “5δ-(3-dimethylamino-2-propyl)thiomethylenepristinamycin IA [Reference Example 57]” to “5γ-deoxy-5γ-[N-(2-dimethylaminoethyl)-N-methylamino]pristinamy cin IA [product D]”, the “Solubility: concentration … of hydrochloride” value rises from 5% to 10%.

Compared with “26-(2-Diisopropylaminoethyl)sulphonylpristinamycin IIB [Example 25]”, “5δ-(3-dimethylaminopropyl)thiomethylpristinamycin IA [product AA]” is higher in “Solubility: concentration … of hydrochloride” value: 5% for the first, 10% for the second.

`CCC1NC(=O)C(NC(=O)c2ncccc2O)C(C)OC(=O)C(c2ccccc2)NC(=O)C2CC(=O)C(CSCCCN(C)C)CN2C(=O)C(Cc2ccccc2)N(C)C(=O)C2CCCN2C1=O` (centres unmarked) [product AB, 5δ-(3-dimethylaminopropyl)thiomethylvirginiamycin S] ({Picolinoyl(3-OH)}-T[Abu]P[NMeF][X7][Phg]; ester 1-C; configuration not given here) and “5γ-deoxy-(3-dimethylaminopropyl)-5γ-amino-pristinamycin IA [product A]” are the same in “Solubility: concentration … of hydrochloride” value: 10% for the first, 10% for the second.

`CCC1NC(=O)C(NC(=O)c2ncccc2O)C(C)OC(=O)C(c2ccccc2)NC(=O)C2CC(=O)C(CSCCCN3CCN(C)CC3)CN2C(=O)C(Cc2ccc(N(C)C)cc2)N(C)C(=O)C2CCCN2C1=O` (centres unmarked) [product AD, 5δ-[3-(4-methyl-1-piperazinyl)propyl]thiomethylpristinamycin IA] ({Picolinoyl(3-OH)}-T[Abu]P[ξNMePhe(4-NMe2)][X5][Phg]; ester 1-C; configuration not given here) and `CCC1NC(=O)C(NC(=O)c2ncccc2O)C(C)OC(=O)C(c2ccccc2)NC(=O)C2CC(=O)C(=CSC(C)CN3CCN(C)CC3)CN2C(=O)C(Cc2ccc(N(C)C)cc2)N(C)C(=O)C2CCCN2C1=O` (centres unmarked) [product AAN, 5δ-[3-(4-methyl-1-piperazinyl)-2-propyl]thiomethylenepristinamycin IA] ({Picolinoyl(3-OH)}-T[Abu]P[ξNMePhe(4-NMe2)][X6][Phg]; ester 1-C; configuration not given here) are the same in “Solubility: concentration … of hydrochloride” value: 10% for the first, 10% for the second.

In the case of `CCN(C)CC[S+]([O-])C1CCN2C(=O)c3coc(n3)CC(=O)CC(O)C=C(C)C=CCNC(=O)C=CC(C)C(C(C)C)OC(=O)C12` (centres unmarked) [Example 5, 2-(N-methyl-N-ethyl-2-aminoethyl)sulphinylpristinamycin IIB], the “Solubility: concentration … of hydrochloride” value is reported as 10%.

Assay: Solubility in water (aqueous solution obtained)
Format: physicochemical
Settings: distilled water, no hydrochloride stated

Going from “5γ-[N-(carboxymethyl)methylamino]-5γ-deoxypristinamycin IA [product K]” to `CCC1NC(=O)C(NC(=O)c2ncccc2O)C(C)OC(=O)C(c2ccccc2)NC(=O)C2CC(=O)C(=CNCCN(C)C)CN2C(=O)C(Cc2ccc(N(C)C)cc2)N(C)C(=O)C2CCCN2C1=O` (centres unmarked) [product AG, 5δ-(2-dimethylaminoethyl)aminomethylenepristinamycin IA] ({Picolinoyl(3-OH)}-T[Abu]P[ξNMePhe(4-NMe2)][X3][Phg]; ester 1-C; configuration not given here), the “Solubility: concentration of aqueous solution” value falls from 2% to 1%.
